Laboratory results published in US20040029823A1, “Antisense oligonucleotide compositions and methods for the modulation of JNK proteins” (priority 1997, published 2004).
Strand notation (5' to 3'): a small letter for the sugar, then the base; units joined by * are phosphorothioate-linked, units joined directly phosphodiester-linked; [ ] holds rarer units or linkages, { } end groups; capitals alone tell only the bases. e = 2'-O-(2-methoxyethyl) (MOE); [5mC] = 5-methylcytosine; d = 2'-deoxy (DNA)

How the values were obtained:
JNK1 mRNA = assay: Northern assay of JNK1 mRNA expression in A549 cells; format: cell-based, human; conditions: for RNA % Control / RNA % Inhibition: 300 nM for 20 hours then 200 nM for 4 hours
Experimental: (§1) In order to evaluate the activity of potential JNK-modulating oligonucleotides, human lung carcinoma cell line A549 (American Type Culture Collection, Rockville, Md. No. ATCC CCL-185) cells or other cell lines as indicated in the Examples, were grown and treated with oligonucleotides or control solutions as detailed below. After harvesting, cellular extracts were prepared and examined for specific JNK mRNA levels or JNK protein levels (i.e., Northern or Western assays, respectively). In all cases, “% expression” refers to the amount of JNK-specific signal in an oligonucleotide-treated cell relative to an untreated cell (or a cell treated with a control solution that lacks oligonucleotide), and “% inhibition” is calculated as
100%−% Expression =% Inhibition.
Northern Assays: The mRNA expression of each JNK protein was determined by using a nucleic acid probe specifically hybridizable thereto. Nucleic acid probes specific for JNK1, JNK2 and JNK3 are described in Examples 3, 4 and 5, respectively. The probes were radiolabelled by means well known in the art (see, e.g., Short Protocols in Molecular Biology, 2nd Ed., Ausubel et al., Eds., John Wiley & Sons, New York, 1992, pages 3-11 to 2-3-44 and 4-17 to 4-18; Ruth, Chapter 6 In: Methods in Molecular Biology, Vol. 26: Protocols for Oligonucleotide Conjugates, Agrawal, ed., Humana Press Inc., Totowa, N.J., 1994, pages 167-185; and Chapter 10 In: Molecular Cloning: A Laboratory Manual, 2nd Ed., Sambrook et al., Eds., pages 10.1-10.70). The blots were stripped and reprobed with a ^32P-labeled glyceraldehyde 3-phosphate dehydrogenase (G3PDH) probe (Clontech Laboratories, Inc., Palo Alto, Calif.) in order to confirm equal loading of RNA and to allow the levels of JNK transcripts to be normalized with regard to the G3PDH signals.
A549 cells were grown in T-75 flasks until 80-90% confluent. At this time, the cells were washed twice with 10 mL of media (DMEM), followed by the addition of 5 mL of DMEM containing 20 μg/mL of LIPOFECTIN™ (i.e., 1:1 (w/w) DOTMA/DOPE, Life Technologies, Gaithersburg, Md.; DOTMA=N-[1-(2,3-dioleyoxy)propyl]-N,N,N-trimethylammonium chloride; DOPE=dioleoyl phosphatidylethanolamine). The oligonucleotides were added from a 10 μM stock solution to a final concentration of 400 nM, and the two solutions were mixed by swirling the flasks. As a control, cells were treated with LIPOFECTIN™ without oligonucleotide under the same conditions and for the same times as the oligonucleotide-treated samples. After 4 hours at 37° C., the medium was replaced with fresh DMEM containing 10% serum. The cells were allowed to recover for 18 hours. Total cellular RNA was then extracted in guanidinium, subject to gel electrophoresis and transferred to a filter according to techniques known in the art (see, e.g., Chapter 7 In: Molecular Cloning: A Laboratory Manual, 2nd Ed., Sambrook et al., Eds., pages 7.1-7.87, and Short Protocols in Molecular Biology, 2nd Ed., Ausubel et al., Eds., John Wiley & Sons, New York, 1992, pages 2-24 to 2-30 and 4-14 to 4-29). Filters were typically hybridized overnight to a probe specific for the particular JNK gene of interest in hybridization buffer (25 mM KPO4, pH 7.4; 5×SSC; 5× Denhardt's solution, 100 μg/ml Salmon sperm DNA and 50% formamide) (Alahari et al., Nucl. Acids Res., 1993, 21, 4079). This was followed by two washes with 1×SSC, 0.1% SDS and two washes with 0.25×SSC, 0.1% SDS. Hybridizing bands were visualized by exposure to X-OMAT AR film and quantitated using a PHOSPHORIMAGER™ essentially according to the manufacturer's instructions (Molecular Dynamics, Sunnyvale, Calif.)
B. JNK1-specific probes: In initial screenings of a set of oligonucleotides derived from the JNK1 sequence (Table 2) for biological activity, a cDNA clone of JNK1 (Derijard et al., Cell, 1994, 76, 1025) was radiolabeled and used as a JNK1-specific probe in Northern blots. […]

JNK1 protein = assay: Western assay of JNK1 protein levels in A549 cells; format: cell-based, human; conditions: 300 nM for 20 hours then 200 nM for 4 hours
Experimental: as §1
Western Assays: A549 cells were grown and treated with oligonucleotides as described above. Cells were lysed, and protein extracts were electrophoresed (SDS-PAGE) and transferred to nitrocellulose filters by means known in the art (see, e.g., Chapter 18 In: Molecular Cloning: A Laboratory Manual, 2nd Ed., Sambrook et al., Eds., pages 18.34, 18.47-18.54 and 18.60-18.75)). The amount of each JNK protein was determined by using a primary antibody that specifically recognizes the appropriate JNK protein. The primary antibodies specific for each JNK protein are described in the appropriate Examples. The primary antibodies were detected by means well known in the art (see, e.g., Short Protocols in Molecular Biology, 2nd Ed., Ausubel et al., Eds., John Wiley & Sons, New York, 1992, pages 10-33 to 10-35; and Chapter 18 In: Molecular Cloning: A Laboratory Manual, 2nd Ed., Sambrook et al., Eds., pages 18.1-18.75 and 18.86-18.88) and quantitated using a PHOSPHORIMAGER™ essentially according to the manufacturer's instructions (Molecular Dynamics, Sunnyvale, Calif.).
F. Western Assays: In order to assess the effect of oligonucleotides targeted to JNK1 mRNAs on JNK1 protein levels, Western assays were performed essentially as described above in Example 2, with the following exception(s) and/or modification(s). A primary antibody that specifically binds to JNK1 (catalog No. sc-474-G) was purchased from Santa Cruz Biotechnology, Inc. (Santa Cruz, Calif.; other JNK1-specific antibodies are available from StressGen Biotechnologies, Inc., Victoria, BC, Canada; and Research Diagnostics, Inc., Flanders, N.J.). In this experiment, cells were grown and treated with oligonucleotide at 300 nM for the initial 20 hours and then at 200 nM for 4 hours. At t=48 h, aliquots were removed for Northern and Western analyses, and fresh media was added to the cells. Aliquots for analysis were also taken at t=72 h. The samples from t=48 h and t=72 h were analyzed using the Northern and Western assays described above.

[1] = JNK1 mRNA time course, t=0 h after 4 hour treatment
[2] = JNK1 mRNA time course, time 272 h [sic] (t=72 h in text)
[3] = JNK1 mRNA, chemically modified oligonucleotides, dose 100 nM
[4] = JNK1 mRNA, chemically modified oligonucleotides, dose 400 nM

| Substance | Normalized % Control (JNK1 mRNA; [3]) | Normalized % Control (JNK1 mRNA; [4]) | RNA % Control (JNK1 mRNA; JNK1 mRNA, t = 48 h) | RNA % Control (JNK1 mRNA; JNK1 mRNA, t = 72 h) | Protein % Control (JNK1 protein; t = 48 h) | Protein % Control (JNK1 protein; t = 72 h) | RNA % Inhibition (JNK1 mRNA; JNK1 mRNA, t = 72 h) | Protein % Inhibition (JNK1 protein; t = 48 h) | Protein % Inhibition (JNK1 protein; t = 72 h) | RNA % Inhibition (JNK1 mRNA; JNK1 mRNA, t = 48 h) | other results |
| --- | --- | --- | --- | --- | --- | --- | --- | --- | --- | --- | --- |
| 12539 (antisense CTCTCTGTAGGCCCGCTTGG; DNA, all phosphorothioate, methylation of C not given here) [compound 12539] | 56.4% | 26.7% | 6.7% | 11.7% | 44.3% | 29.2% |  |  |  |  | Normalized % Control (JNK1 mRNA; JNK1 mRNA dose response, 50 nM): 70.3%; Normalized % Control (JNK1 mRNA; JNK1 mRNA dose response, 100 nM): 51.6%; Normalized % Control (JNK1 mRNA; JNK1 mRNA dose response, 200 nM): 22.4%; Normalized % Control (JNK1 mRNA; JNK1 mRNA dose response, 400 nM): 11.1%; % INHIBITION (JNK1 mRNA; [1]): 85.9%; Normalized % Control (JNK1 mRNA; [1]): 14.1%; % INHIBITION (JNK1 mRNA; JNK1 mRNA time course, t=4 h): 94.1%; Normalized % Control (JNK1 mRNA; JNK1 mRNA time course, t=4 h): 5.9%; % INHIBITION (JNK1 mRNA; JNK1 mRNA time course, t=12 h): 88.4%; Normalized % Control (JNK1 mRNA; JNK1 mRNA time course, t=12 h): 11.6%; % INHIBITION (JNK1 mRNA; JNK1 mRNA time course, t=48 h): 79.0%; Normalized % Control (JNK1 mRNA; JNK1 mRNA time course, t=48 h): 21.0%; % INHIBITION (JNK1 mRNA; [2]): 58.5%; Normalized % Control (JNK1 mRNA; [2]): 41.5%; % EXPRESSION (JNK1 mRNA; JNK1 mRNA, A549 cells, 400 nM oligonucleotide, relative to LIPOFECTIN-only control): 9% |
| 15345 (antisense e[5mC]*eT*e[5mC]*eT*e[5mC]*eT*eG*eT*eA*eG*eG*e[5mC]*e[5mC]*e[5mC]*eG*e[5mC]*eT*eT*eG*eG) [compound 15345] | 95.4% | 89.1% | 70.3% | 187.4% | 105.0% | 87.8% | (0.0) % | (0.0) % | 12.2% |  |  |
| 15347 (antisense CTCTCTGTAGGCCCGCTTGG; sugars from the 5' end e5 d9 e6, [5mC] at 1, 3, 5, 16, linkages o4 s10 o5 (s phosphorothioate, o phosphodiester), methylation of C not given here) [compound 15347] | 27.1% | 11.7% | 7.9% | 8.2% | 38.8% | 28.4% | 81.8% |  |  | 92.1% | inhibition of JNK1 mRNA expression (JNK1 mRNA; chemically modified derivatives of ISIS 12539, 400 nM (Table 5)): at least 88% |
| 15348 (antisense CTCTCTGTAGGCCCGCTTGG; sugars from the 5' end e11 d9, [5mC] at 1, 3, 5, all phosphorothioate, methylation of C not given here) [compound 15348] | 30.4% | 32.9% | 24.3% | 28.0% | 58.3% | 41.7% | 72.0% | 41.7% | 58.3% | 75.7% |  |
| 15349 (antisense CTCTCTGTAGGCCCGCTTGG; sugars from the 5' end d9 e11, [5mC] at 12, 13, 14, 16, all phosphorothioate, methylation of C not given here) [compound 15349] | 42.5% | 35.5% | 63.1% | 52.0% | 69.5% | 56.5% | 48.0% | 30.5% | 43.5% | 36.9% |  |
| 15350 (antisense CTCTCTGTAGGCCCGCTTGG; sugars from the 5' end d9 e11, [5mC] at 12, 13, 14, 16, linkages s9 o10 (s phosphorothioate, o phosphodiester), methylation of C not given here) [compound 15350] | 71.1% | 41.3% | 49.2% | 54.4% | 71.7% | 58.4% | 45.6% | 28.3% | 41.6% | 50.0% |  |
